What was measured:
Format in all cases: in vivo
[1] = system: Monocotyledonous and dicotyledonous weed; assay: Post-emergence test experiment, weed control effect (Table 2); parameters: key to weed control effect, Setaria viridis (level) / weed control effect, Rorippa indica (level) / weed control effect, Abutilon theophrasti (level) / weed control effect, Echinochloa crus-galli (level) / weed control effect, Digitaria sanguinalis (level): Level 10: completely dead; Level 9: above 90% growth inhibition rate; Level 8: above 80% growth inhibition rate; Level 7: above 70% growth inhibition rate; Level 6: above 60% growth inhibition rate; Level 5: above 50% growth inhibition rate; Level 4: above 30% growth inhibition rate; Level 3: above 20% growth inhibition rate; Level 2: above 10% growth inhibition rate; Level 1: above 1-10% growth inhibition rate; Level 0: no effect; details: 3 weeks after spraying, greenhouse
Procedure, shortened: (§1)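 Compounds, dissolved in acetone, mixed with Tween 80 and diluted in water, were sprayed post-emergence onto greenhouse-grown weeds and crops at the 2-3 leaf stage (2-3 weeks post-sowing). Plants then grown 3 more weeks in the greenhouse before evaluation.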

[2] = system: main crop (wheat, corn, rice, soybean, cotton, oilseed, millet and sorghum); assay: Post-emergence test experiment, main crops (Table 2); parameters: key: Level 10: completely dead; Level 9: above 90% growth inhibition rate; Level 8: above 80% growth inhibition rate; Level 7: above 70% growth inhibition rate; Level 6: above 60% growth inhibition rate; Level 5: above 50% growth inhibition rate; Level 4: above 30% growth inhibition rate; Level 3: above 20% growth inhibition rate; Level 2: above 10% growth inhibition rate; Level 1: above 1-10% growth inhibition rate; Level 0: no effect; details: 3 weeks after spraying, greenhouse
Procedure, shortened: as §1

[3] = system: Echinochloa crus-galli; assay: Weed control effect evaluation in transplanted rice field; parameters: key: Level 10: completely dead; Level 9: above 90% growth inhibition rate; Level 8: above 80% growth inhibition rate; Level 7: above 70% growth inhibition rate; Level 6: above 60% growth inhibition rate; Level 5: above 50% growth inhibition rate; Level 4: above 30% growth inhibition rate; Level 3: above 20% growth inhibition rate; Level 2: above 10% growth inhibition rate; Level 1: above 1-10% growth inhibition rate; Level 0: no effect; details: transplanted rice field pot test, application rate 500 g/ha, 14 days after treatment
Protocol: (§2) Rice field soil was loaded into a 1/1,000,000 ha pot. The seeds of Echinochloa, Scirpus juncoides, Bidens tripartite and Sagittaria trifolia were sowed and gently covered with soil, then left to stand still in greenhouse in the state of 0.5-1 cm of water storage. The tuber of Sagittaria trifolia was planted in the next day or 2 days later. It was kept at 3-4 cm of water storage thereafter. The weeds were treated by dripping the WP or SC water diluents prepared according to the common preparation method of the compounds of the present invention with pipette homogeneously to achieve specified effective amount when Echinochloa, Scirpus juncoides and Bidens tripartite reached 0.5 leaf stage and Sagittaria trifolia reached the time point of primary leaf stage.
(§3) The fertility condition of Echinochloa, Scirpus juncoides, Bidens tripartite and Sagittaria trifolia 14 days after the treatment of the compound of the invention and the fertility condition of rice 21 days after the treatment of the compound of the invention respectively with the naked eye.
(§4) The seeds of Echinochloa crus-galli, Scirpus juncoides and Monochoria vaginalis were collected from Heilongjing and Jiangsu Province of China.

[4] = system: Monochoria vaginalis; assay: as above; parameters: key: Level 10: completely dead; Level 9: above 90% growth inhibition rate; Level 8: above 80% growth inhibition rate; Level 7: above 70% growth inhibition rate; Level 6: above 60% growth inhibition rate; Level 5: above 50% growth inhibition rate; Level 4: above 30% growth inhibition rate; Level 3: above 20% growth inhibition rate; Level 2: above 10% growth inhibition rate; Level 1: above 1-10% growth inhibition rate; Level 0: no effect; details: transplanted rice field pot test, application rate 500 g/ha, 14 days after treatment
Protocol: as §2, §3, §4

[5] = system: Scirpus juncoides; assay: as above; parameters: key: Level 10: completely dead; Level 9: above 90% growth inhibition rate; Level 8: above 80% growth inhibition rate; Level 7: above 70% growth inhibition rate; Level 6: above 60% growth inhibition rate; Level 5: above 50% growth inhibition rate; Level 4: above 30% growth inhibition rate; Level 3: above 20% growth inhibition rate; Level 2: above 10% growth inhibition rate; Level 1: above 1-10% growth inhibition rate; Level 0: no effect; details: transplanted rice field pot test, application rate 500 g/ha, 14 days after treatment
Protocol: as §2, §3, §4

[6] = system: Rice; assay: Transplanted rice safety evaluation; parameters: key: Level 10: completely dead; Level 9: above 90% growth inhibition rate; Level 8: above 80% growth inhibition rate; Level 7: above 70% growth inhibition rate; Level 6: above 60% growth inhibition rate; Level 5: above 50% growth inhibition rate; Level 4: above 30% growth inhibition rate; Level 3: above 20% growth inhibition rate; Level 2: above 10% growth inhibition rate; Level 1: above 1-10% growth inhibition rate; Level 0: no effect; details: transplanted 3 leaf stage japonica rice, application rate 500 g/ha, 21 days after treatment
Protocol: In addition, the rice field soil that loaded into the 1/1,000,000 ha pot was leveled to keep water storage at 3-4 cm depth. The 3 leaf stage rice (japonica rice) was transplanted at 3 cm of transplanting depth the next day. The compound of the present invention was treated by the same way after 5 days of transplantation. The fertility condition of Echinochloa, Scirpus juncoides, Bidens tripartite and Sagittaria trifolia 14 days after the treatment of the compound of the invention and the fertility condition of rice 21 days after the treatment of the compound of the invention respectively with the naked eye.

SMILES: Cc1ccn(Cc2c(S(C)(=O)=O)ccc(C(=O)c3c(C)nn(C)c3OC(=O)c3cn(C)nc3C)c2Cl)n1 [Compound 02]
- weed control effect, Abutilon theophrasti (level) ([1]; 120 g/ha): 8 (Level 8: above 80% growth inhibition rate)
- weed control effect, Bidens pilosa (level) ([1]; 120 g/ha): 9 (Level 9: above 90% growth inhibition rate)
- weed control effect, Digitaria sanguinalis (level) ([1]; 120 g/ha): 2 (Level 2: above 10% growth inhibition rate)
- weed control effect, Echinochloa crus-galli (level) ([1]; 120 g/ha): 10
- weed control effect, Rorippa indica (level) ([1]; 120 g/ha): 10
- weed control effect, Setaria viridis (level) ([1]; 120 g/ha): 6 (Level 6: above 60% growth inhibition rate)
- effect on crop, corn (level) ([2]; 120 g/ha): 0
- effect on crop, rice (level) ([2]; 120 g/ha): 1 (Level 1: above 1-10% growth inhibition rate)
- effect on crop, wheat (level) ([2]; 120 g/ha): 0
- Weed control effect, Echinochloa crus-galli (activity level) [3]: 10
- Weed control effect, Monochoria vaginalis (activity level) [4]: 9 (Level 9: above 90% growth inhibition rate)
- Weed control effect, Scirpus juncoides (activity level) [5]: 10
- Rice (safety, activity level) [6]: 0

SMILES: Cc1ccn(Cc2c(S(C)(=O)=O)ccc(C(=O)c3cnn(C)c3OC(=O)c3cn(C)nc3C)c2Cl)n1 [Compound 06]
- weed control effect, Abutilon theophrasti (level) ([1]; 120 g/ha): 7 (Level 7: above 70% growth inhibition rate)
- weed control effect, Bidens pilosa (level) ([1]; 120 g/ha): 9 (Level 9: above 90% growth inhibition rate)
- weed control effect, Digitaria sanguinalis (level) ([1]; 120 g/ha): 2 (Level 2: above 10% growth inhibition rate)
- weed control effect, Echinochloa crus-galli (level) ([1]; 120 g/ha): 10
- weed control effect, Rorippa indica (level) ([1]; 120 g/ha): 10
- weed control effect, Setaria viridis (level) ([1]; 120 g/ha): 6 (Level 6: above 60% growth inhibition rate)
- effect on crop, corn (level) ([2]; 120 g/ha): 0
- effect on crop, rice (level) ([2]; 120 g/ha): 1 (Level 1: above 1-10% growth inhibition rate)
- effect on crop, wheat (level) ([2]; 120 g/ha): 0
- Weed control effect, Echinochloa crus-galli (activity level) [3]: 10
- Weed control effect, Monochoria vaginalis (activity level) [4]: 10
- Weed control effect, Scirpus juncoides (activity level) [5]: 10
- Rice (safety, activity level) [6]: 1 (Level 1: above 1-10% growth inhibition rate)

SMILES: Cc1nn(C)cc1C(=O)Oc1c(C(=O)c2ccc(S(C)(=O)=O)c(Cn3cc(Cl)cn3)c2Cl)c(C2CC2)nn1C [Compound 10]
- weed control effect, Abutilon theophrasti (level) ([1]; 120 g/ha): 7 (Level 7: above 70% growth inhibition rate)
- weed control effect, Bidens pilosa (level) ([1]; 120 g/ha): 9 (Level 9: above 90% growth inhibition rate)
- weed control effect, Digitaria sanguinalis (level) ([1]; 120 g/ha): 2 (Level 2: above 10% growth inhibition rate)
- weed control effect, Echinochloa crus-galli (level) ([1]; 120 g/ha): 10
- weed control effect, Rorippa indica (level) ([1]; 120 g/ha): 10
- weed control effect, Setaria viridis (level) ([1]; 120 g/ha): 7 (Level 7: above 70% growth inhibition rate)
- effect on crop, corn (level) ([2]; 120 g/ha): 0
- effect on crop, rice (level) ([2]; 120 g/ha): 1 (Level 1: above 1-10% growth inhibition rate)
- effect on crop, wheat (level) ([2]; 120 g/ha): 0
- Weed control effect, Echinochloa crus-galli (activity level) [3]: 10
- Weed control effect, Monochoria vaginalis (activity level) [4]: 10
- Weed control effect, Scirpus juncoides (activity level) [5]: 10
- Rice (safety, activity level) [6]: 1 (Level 1: above 1-10% growth inhibition rate)

SMILES: Cn1cc(Cl)c(C(=O)Oc2c(C(=O)c3ccc(S(C)(=O)=O)c(COCC(F)F)c3Cl)cnn2C)n1 [Compound 102]
- weed control effect, Abutilon theophrasti (level) ([1]; 30 g/ha): 7 (Level 7: above 70% growth inhibition rate)
- weed control effect, Bidens pilosa (level) ([1]; 30 g/ha): 7 (Level 7: above 70% growth inhibition rate)
- weed control effect, Digitaria sanguinalis (level) ([1]; 30 g/ha): 7 (Level 7: above 70% growth inhibition rate)
- weed control effect, Echinochloa crus-galli (level) ([1]; 30 g/ha): 10
- weed control effect, Rorippa indica (level) ([1]; 30 g/ha): 10
- weed control effect, Setaria viridis (level) ([1]; 30 g/ha): 6 (Level 6: above 60% growth inhibition rate)
- effect on crop, corn (level) ([2]; 30 g/ha): 1 (Level 1: above 1-10% growth inhibition rate)
- effect on crop, rice (level) ([2]; 30 g/ha): 5 (Level 5: above 50% growth inhibition rate)
- effect on crop, wheat (level) ([2]; 30 g/ha): 0

SMILES: Cc1cc(C)n(Cc2c(S(C)(=O)=O)ccc(C(=O)c3c(C)nn(C(C)C)c3OC(=O)c3nn(C)cc3Cl)c2Cl)n1 [Compound 103]
- weed control effect, Abutilon theophrasti (level) ([1]; 120 g/ha): 7 (Level 7: above 70% growth inhibition rate)
- weed control effect, Bidens pilosa (level) ([1]; 120 g/ha): 7 (Level 7: above 70% growth inhibition rate)
- weed control effect, Digitaria sanguinalis (level) ([1]; 120 g/ha): 2 (Level 2: above 10% growth inhibition rate)
- weed control effect, Echinochloa crus-galli (level) ([1]; 120 g/ha): 10
- weed control effect, Rorippa indica (level) ([1]; 120 g/ha): 10
- weed control effect, Setaria viridis (level) ([1]; 120 g/ha): 3 (Level 3: above 20% growth inhibition rate)
- effect on crop, corn (level) ([2]; 120 g/ha): 1 (Level 1: above 1-10% growth inhibition rate)
- effect on crop, rice (level) ([2]; 120 g/ha): 0
- effect on crop, wheat (level) ([2]; 120 g/ha): 0

SMILES: CCOCc1c(S(C)(=O)=O)ccc(C(=O)c2c(CC)nn(CC)c2OC(=O)c2nn(C)cc2Cl)c1Cl [Compound 104]
- weed control effect, Abutilon theophrasti (level) ([1]; 60 g/ha): 10
- weed control effect, Bidens pilosa (level) ([1]; 60 g/ha): 8 (Level 8: above 80% growth inhibition rate)
- weed control effect, Digitaria sanguinalis (level) ([1]; 60 g/ha): 10
- weed control effect, Echinochloa crus-galli (level) ([1]; 60 g/ha): 10
- weed control effect, Rorippa indica (level) ([1]; 60 g/ha): 10
- weed control effect, Setaria viridis (level) ([1]; 60 g/ha): 10
- effect on crop, corn (level) ([2]; 60 g/ha): 0
- effect on crop, rice (level) ([2]; 60 g/ha): 4 (Level 4: above 30% growth inhibition rate)
- effect on crop, wheat (level) ([2]; 60 g/ha): 0

SMILES: CCc1nn(C)c(C(=O)Oc2c(C(=O)c3ccc(S(C)(=O)=O)c(COCC(F)(F)F)c3Cl)cnn2C)c1Cl [Compound 105]
- weed control effect, Abutilon theophrasti (level) ([1]; 60 g/ha): 10
- weed control effect, Bidens pilosa (level) ([1]; 60 g/ha): 8 (Level 8: above 80% growth inhibition rate)
- weed control effect, Digitaria sanguinalis (level) ([1]; 60 g/ha): 9 (Level 9: above 90% growth inhibition rate)
- weed control effect, Echinochloa crus-galli (level) ([1]; 60 g/ha): 10
- weed control effect, Rorippa indica (level) ([1]; 60 g/ha): 10
- weed control effect, Setaria viridis (level) ([1]; 60 g/ha): 10
- effect on crop, corn (level) ([2]; 60 g/ha): 0
- effect on crop, rice (level) ([2]; 60 g/ha): 4 (Level 4: above 30% growth inhibition rate)
- effect on crop, wheat (level) ([2]; 60 g/ha): 0

SMILES: CCc1nn(C)c(C(=O)Oc2c(C(=O)c3ccc(S(C)(=O)=O)c(Cn4cccn4)c3Cl)c(C)nn2C(C)C)c1Cl [Compound 106]
- weed control effect, Abutilon theophrasti (level) ([1]; 60 g/ha): 10
- weed control effect, Bidens pilosa (level) ([1]; 60 g/ha): 8 (Level 8: above 80% growth inhibition rate)
- weed control effect, Digitaria sanguinalis (level) ([1]; 60 g/ha): 8 (Level 8: above 80% growth inhibition rate)
- weed control effect, Echinochloa crus-galli (level) ([1]; 60 g/ha): 10
- weed control effect, Rorippa indica (level) ([1]; 60 g/ha): 10
- weed control effect, Setaria viridis (level) ([1]; 60 g/ha): 10
- effect on crop, corn (level) ([2]; 60 g/ha): 0
- effect on crop, rice (level) ([2]; 60 g/ha): 1 (Level 1: above 1-10% growth inhibition rate)
- effect on crop, wheat (level) ([2]; 60 g/ha): 0

Reference: patent US10556888B2, “Pyrazole compounds or salts thereof, preparation methods therefor, herbicidal compositions and use thereof” (QINGDAO KINGAGROOT CHEMICAL COMPOUNDS CO., LTD, priority 2015, dated 2020)
